In patent publication US20050130979A1, “Treatment of demyelinating disorders” (Eisai Co., Ltd., priority 1998, published 2005):
Entries after “also recorded” stand apart in the source; their conditions may differ.

Columns and labels:
Lewis rat acute EAE = assay: Acute-active EAE in Lewis rats (MBP immunisation), clinical disease scoring and weight; assay type: in vivo; details: for Incidence (%) / Incidence (animals with neurological deficit / group): Lewis rat acute EAE; for Duration / Onset / Peak Disease Score / Cumulative Disease Score / Weight Loss: mean; for Peak Disease Score: scale 0-5; for neurological deficits during acute EAE (in words): following treatment; for severity of paralysis during EAE (in words): vs vehicle
Method: Female Lewis rats (205+10 g) obtained from Charles River, Kent, UK, were housed in pairs under environmentally controlled conditions (6:00 a.m.-6:00 p.m. light/dark cycle; 22-24° C.; 45-55% humidity) and allowed free access to food and water. […] Female Biozzi mice (20±5 g) obtained from Harlan, UK, were housed under the conditions described above. Experimental groups consisted of 7-10 animals.
Rats were immunised in each hind foot with 50 μl of inoculum containing 50 μg guinea pig myelin basic protein (MBP, prepared by the method of Dunkley and Carnegie (1974); final concentration […]), emulsified in Freund's complete adjuvant (CFA; Sigma, UK) containing Mycobacterium tuberculosis H37Ra (final concentration 5.5 mg/ml; Difco Laboratories, UK).
Animals were weighed and monitored daily and clinical disease scored as (0) no clinical signs; (1) flaccid tail and weight loss; (2) hind limb hypotonia with further weight loss; (3) complete hind limb paralysis; (4) paraplegia and (5) death. […] During the period of compound administration (10-16 days post immunisation; dpi) animals were scored 15 h after injection of vehicle or NBQX to avoid any acute effect of treatment on disease score.
NBQX was initially dissolved in NaOH and diluted with water. pH was adjusted with HCl. Rats were injected i.p. twice daily (9 a.m. and 5 p.m.) on days 10 to 16 post immunisation with either vehicle or NBQX in the dose of 30 mg/kg. Mice were injected i.p. either twice daily (9 a.m. and 5 p.m.) on days 10 to 16 post immunisation or once daily (9 a.m.) on days 26 to 42 post immunisation with either vehicle or NBQX in the dose of 30 mg/kg.
GYKI53773 was suspended in 5% cremophore in saline. Rats were injected i.p. twice daily (9 a.m. and 5 p.m.) on days 10 to 16 post immunisation with either vehicle or GYKM53773 in the dose of 30 mg/kg.
GYKM52466 was suspended in 5% cremophore in water. Rats were injected i.p. twice daily (9 a.m. and 5 p.m.) on days 10 to 16 post immunisation with either vehicle or GYKI52466 in the dose of 30 mg/kg.
BIIR561 was suspended in 5% cremophore in water. Rats were injected i.p. twice daily (9 a.m. and 5 p.m.) on days 10 to 16 post immunisation with either vehicle or BIIR561 in the dose of 30 mg/kg.
CP465022 was suspended in 5% cremophore in water. Rats were injected i.p. twice daily (9 a.m. and 5 p.m.) on days 10 to 16 post immunisation with either vehicle or CP465022 in the dose of 10 mg/kg.
MPQX was initially dissolved in NaOH and diluted with water. pH was adjusted with HCl. Rats were injected i.p. twice daily (9 a.m. and 5 p.m.) on days 10 to 16 post immunisation with either vehicle or MPQX in the dose of 10 mg/kg.

[1] = tested on: chronic EAE in the Biozzi mouse; assay: Chronic-active EAE in Biozzi mice, clinical disease scoring; assay type: in vivo
[2] = BIIR561 30 mg/kg i.p. twice daily 10-16 dpi
[3] = rats, 30 mg/kg i.p. twice daily 10-16 dpi
[4] = rats, 30 mg/kg i.p. twice daily 10-16 dpi, 30 mg/kg
[5] = CP465022 10 mg/kg i.p. twice daily 10-16 dpi
[6] = rats, 10 mg/kg i.p. twice daily 10-16 dpi
[7] = rats, 10 mg/kg i.p. twice daily 10-16 dpi, 10 mg/kg
[8] = GYKI52466 30 mg/kg i.p. twice daily 10-16 dpi
[9] = MPQX 10 mg/kg i.p. twice daily 10-16 dpi
[10] = NBQX 30 mg/kg i.p. twice daily 10-16 dpi
[11] = 30 mg/kg i.p. twice daily 10-16 dpi
[12] = GYKI53773 30 mg/kg i.p. twice daily 10-16 dpi

CN(C)Oc1ccccc1-c1nc(-c2ccccc2)no1 [BIIR561, 5-(2-[N,N-dimethylamino]oxy-phenyl)-3-phenyl-1,2,4-oxadiazol]
Incidence (%) (Lewis rat acute EAE; [2]): (100) %
Incidence (animals with neurological deficit / group) (Lewis rat acute EAE; [2]): 16/16
Duration (Lewis rat acute EAE; [2]): 3.9 days
Onset (Lewis rat acute EAE; n = 16 for BIIR561, 30 mg/kg i.p. twice daily 10-16 dpi): 12.4 d.p.i.
Peak Disease Score (Lewis rat acute EAE; [2]): 2.6
Cumulative Disease Score (Lewis rat acute EAE; summation of daily scores, BIIR561 30 mg/kg i.p. twice daily 10-16 dpi): 7.8
Weight Loss (Lewis rat acute EAE; weight on cessation of experiment as percent of maximum weight before disease onset, BIIR561 30 mg/kg i.p. twice daily): 17%
neurological deficits during acute EAE (in words) (Lewis rat acute EAE; rats): reduced neurological deficits
cumulative disease score relative to vehicle treatment (in words) (Lewis rat acute EAE; [3]): significantly reduced
peak disease score relative to vehicle treatment (in words) (Lewis rat acute EAE; [4]): significantly reduced
severity of paralysis during EAE (in words) (Lewis rat acute EAE; [3]): redcues the severity of paralysis

CCN(CC)Cc1cccc(C=Cc2nc3ccc(F)cc3c(=O)n2-c2ccccc2Cl)n1 [CP465022, 3-(2-chlorophenyl)-2-[2-[6-[(diethylamino)methyl]-2-pyridinyl]ethenyl]-6-fluoro-4(3H)-quinazolinone]
Incidence (%) (Lewis rat acute EAE; [5]): (89) %
Incidence (animals with neurological deficit / group) (Lewis rat acute EAE; [5]): 8/9
Duration (Lewis rat acute EAE; [5]): 3.4 days
Onset (Lewis rat acute EAE; n = 8 for CP465022, 10 mg/kg i.p. twice daily 10-16 dpi): 13.4 d.p.i.
Peak Disease Score (Lewis rat acute EAE; [5]): 2.0
Cumulative Disease Score (Lewis rat acute EAE; summation of daily scores, CP465022 10 mg/kg i.p. twice daily 10-16 dpi): 7.2
Weight Loss (Lewis rat acute EAE; weight on cessation of experiment as percent of maximum weight before disease onset, CP465022 10 mg/kg i.p. twice daily): 20%
neurological deficits during acute EAE (in words) (Lewis rat acute EAE; rats): reduced neurological deficits
cumulative disease score relative to vehicle treatment (in words) (Lewis rat acute EAE; [6]): reduced
disease duration relative to vehicle treatment (in words) (Lewis rat acute EAE; [6]): reduced
disease onset relative to vehicle treatment (in words) (Lewis rat acute EAE; [6]): significantly delayed
peak disease score relative to vehicle treatment (in words) (Lewis rat acute EAE; [7]): significantly reduces; also recorded: reduced
severity of paralysis during EAE (in words) (Lewis rat acute EAE; [6]): reduces the severity of paralysis

CC1=NN=C(c2ccc(N)cc2)c2cc3c(cc2C1)OCO3 [GYKI52466, 1-(-aminophenyl)-4-methyl-7,8-methylene-dioxy-5H-2,3-benzodiazepine]
Incidence (%) (Lewis rat acute EAE; [8]): (60) %
Incidence (animals with neurological deficit / group) (Lewis rat acute EAE; [8]): 15/16
Duration (Lewis rat acute EAE; [8]): 4.0 days
Onset (Lewis rat acute EAE; n = 15, GYKI52466 30 mg/kg i.p. twice daily 10-16 dpi): 11.6 d.p.i.
Peak Disease Score (Lewis rat acute EAE; [8]): 2.4
Cumulative Disease Score (Lewis rat acute EAE; summation of daily scores, GYKI52466 30 mg/kg i.p. twice daily 10-16 dpi): 8.0
Weight Loss (Lewis rat acute EAE; weight on cessation of experiment as percent of maximum weight before disease onset, GYKI52466 30 mg/kg i.p. twice daily): 20%
neurological deficits during acute EAE (in words) (Lewis rat acute EAE; rats): reduced neurological deficits
cumulative disease score relative to vehicle treatment (in words) (Lewis rat acute EAE; [3]): significantly reduced
peak disease score relative to vehicle treatment (in words) (Lewis rat acute EAE; [4]): significantly reduced
severity of paralysis during EAE (in words) (Lewis rat acute EAE; [3]): reduces the severity of paralysis

O=c1[nH]c2cc(C(F)(F)F)c(N3CCOCC3)cc2n(CP(=O)(O)O)c1=O [MPQX]
Incidence (%) (Lewis rat acute EAE; [9]): (58) %
Incidence (animals with neurological deficit / group) (Lewis rat acute EAE; [9]): 7/12
Duration (Lewis rat acute EAE; [9]): 1.7 days
Onset (Lewis rat acute EAE; n = 7 for MPQX, 10 mg/kg i.p. twice daily 10-16 dpi): 12.3 d.p.i.
Peak Disease Score (Lewis rat acute EAE; [9]): 1.2
Cumulative Disease Score (Lewis rat acute EAE; summation of daily scores, MPQX 10 mg/kg i.p. twice daily 10-16 dpi): 3.2
Weight Loss (Lewis rat acute EAE; weight on cessation of experiment (18 dpi) as percent of maximum weight before disease onset, MPQX 10 mg/kg i.p. twice daily): 22%
neurological deficits during acute EAE (in words) (Lewis rat acute EAE; rats): reduced neurological deficits
cumulative disease score relative to vehicle treatment (in words) (Lewis rat acute EAE; [6]): reduced
disease duration relative to vehicle treatment (in words) (Lewis rat acute EAE; [6]): reduced
disease onset relative to vehicle treatment (in words) (Lewis rat acute EAE; [6]): significantly delayed
peak disease score relative to vehicle treatment (in words) (Lewis rat acute EAE; [7]): significantly reduces; also recorded: reduced
severity of paralysis during EAE (in words) (Lewis rat acute EAE; [6]): reduces the severity of paralysis

NS(=O)(=O)c1cccc2c1c([N+](=O)[O-])cc1nc(O)c(O)nc12 [NBQX, 2,3-dihydroxy6-nitro-7-sulfamoylbenzo-(F)quinoxaline]
Incidence (%) (Lewis rat acute EAE; [10]): (75) %
Incidence (animals with neurological deficit / group) (Lewis rat acute EAE; [10]): 4/10
onset of weight loss (Lewis rat acute EAE; NBQX 30 mg/kg i.p. twice daily 10-16 dpi, p<0.01): 13 dpi
rats in which development of paralysis was completely prevented (Lewis rat acute EAE; NBQX 30 mg/kg i.p. twice daily from day 10 to 16 post immunisation): 6 out of 10
Duration (Lewis rat acute EAE; [11]): 1.5 days
Onset (Lewis rat acute EAE; n = 4 for NBQX, 30 mg/kg i.p. twice daily 10-16 dpi): 11.8 d.p.i.
Peak Disease Score (Lewis rat acute EAE; [11]): 0.7
Cumulative Disease Score (Lewis rat acute EAE; summation of individual daily disease scores, 30 mg/kg i.p. twice daily 10-16 dpi): 2.4
Weight Loss (Lewis rat acute EAE; weight on cessation of treatment (16 dpi) as percent of maximum weight before disease onset, 30 mg/kg i.p. twice daily): 14%
neurological deficits during acute EAE (in words) (Lewis rat acute EAE; rats): reduction in neurological deficits
cumulative disease score relative to vehicle treatment (in words) (Lewis rat acute EAE; [3]): significantly reduced
disease duration relative to vehicle treatment (in words) (Lewis rat acute EAE; [3]): significantly reduced
peak disease score relative to vehicle treatment (in words) (Lewis rat acute EAE; [4]): significantly reduced
severity of paralysis during EAE (in words) (Lewis rat acute EAE; [3]): reduces severity of paralysis
weight loss during the course of EAE (in words) (Lewis rat acute EAE; rats, NBQX 30 mg/kg i.p. twice daily 10-16 dpi, up to cessation of treatment (16 dpi)): reduces weight loss; also recorded: decreasing the percent body weight lost
disease severity between dpi 28 to 48 (in words) ([1]; Biozzi mice, NBQX 30 mg/kg i.p. once daily for 17 days commencing on dpi 26, P<0.05): reduced disease severity
disease severity between dpi 10 to 48 (in words) ([1]; Biozzi mice, NBQX 30 mg/kg i.p. twice daily for 7 days starting on dpi 10, P<0.001): improved neurological outcome reducing disease severity
severity of paralysis during chronic EAE (in words) ([1]; NBQX 30 mg/kg i.p., twice daily 10-16 dpi (A) or once daily 26-42 dpi (B)): reduces the severity of paralysis
neurological deficit during chronic EAE (in words) ([1]; mice, following treatment): reduction in neurological deficit

(−)1-(4-aminophenyl)-4-methyl-7,8-methylenedioxy-4,5-dihydro-^3-methylcarbamoyl-2,3-benzodiazepine [GYKI53773]
Incidence (%) (Lewis rat acute EAE; [12]): (60) %
Incidence (animals with neurological deficit / group) (Lewis rat acute EAE; [12]): 6/10
Duration (Lewis rat acute EAE; [12]): 1.9 days
Onset (Lewis rat acute EAE; n = 6 for GYKI53773, 30 mg/kg i.p. twice daily 10-16 dpi): 12.7 d.p.i.
Peak Disease Score (Lewis rat acute EAE; [12]): 0.9
Cumulative Disease Score (Lewis rat acute EAE; summation of daily scores, GYKI53773 30 mg/kg i.p. twice daily 10-16 dpi): 2.1
Weight Loss (Lewis rat acute EAE; weight on cessation of experiment (20 dpi) as percent of maximum weight before disease onset, GYKI53773 30 mg/kg i.p. twice daily): 16%
neurological deficits during acute EAE (in words) (Lewis rat acute EAE; rats): reduced neurological deficits
cumulative disease score relative to vehicle treatment (in words) (Lewis rat acute EAE; [3]): significantly reduced
disease duration relative to vehicle treatment (in words) (Lewis rat acute EAE; [3]): significantly reduced
peak disease score relative to vehicle treatment (in words) (Lewis rat acute EAE; [4]): significantly reduced
peak disease score relative to vehicle treatment (in words) (Lewis rat acute EAE; rats, 30 mg/kg i.p. twice daily 10-16 dpi, listed as GYKM53773, 30 mg/kg): significantly reduces
severity of paralysis during EAE (in words) (Lewis rat acute EAE; [3]): reduces the severity of paralysis
